The values below come from patent publication EP1568690A1, “The use of carbocyclic and heterocyclic substituted semicarbazones and thiosemicarbazones as sodium channel blockers” (Euro-Celtique S.A., priority 1997, dated 1998).

Where two headings read alike, the source gives them in different places. Some results are limits rather than exact numbers.

The subject of experiment [1] is maximal electroshock-induced seizures (MES). Put plainly: Maximal electroshock-induced seizure (MES) test. To be noted: mice; for MES (ED50 mg/kg): 30 min; for ED50: Mus musculus, po, 0.5 h. Format: in vivo. The protocol: Mice were restrained by gripping the loose skin on their dorsal surface and saline-coated corneal electrodes were held lightly against the two cornea. […] A tonic seizure was defined as a hindlimb extension in excess of 90 degrees from plane of the body.
4-(3,4-Methylenedioxyphenoxy)benzaldehyde semicarbazone was administered orally to mice 30 min before the test procedure. […]

Experiment [2] concerns voltage-sensitive Na^+ channels. Put plainly: Electrophysiological assay: whole-cell patch-clamp of Na^+ currents in acutely dissociated hippocampal neurons. Format: cell-based, rat. The method, then: Cell preparation: Acute cultures of rat hippocampal neurons were prepared daily using a modification of procedures described previously (Kuo and Bean, Mol. Pharm. 46:716-725 (1994)). Briefly, hippocampi were isolated from 3-11 day old rat pup brains (Sprague-Dawley; Charles River) and were sectioned, by hand, into 0.5 - 1 mm thick transverse slices (Whittemore and Koerner, Eur. J. Pharm. 192:435-438 (1991)). Slices were incubated for at least 30 min at room temperature (20 - 24 °C) in an oxygenated medium (124 mM NaCl, 3.3 mM KCl, 2.4 mM MgSO4, 2.5 mM CaCl2, 1.2 mM KH2PO4, 26 mM NaHCO3, pH = 7.4) continuously bubbled with 5% CO2 / 95 % O2. […]
Patch-clamp recordings of voltage-sensitive Na^+ currents: Whole-cell voltage-clamp recordings were made using conventional patch-clamp technique (Hamill et al., Pfluegers Arch. 391:85-100 (1981)) with an Axopatch 200A amplifier (Axon Instruments, Foster City, CA). […] Currents were recorded at room temperature (22-25°C), filtered at 5 kHz with 4-pole Bessel filter, digitized at 20-50-µs intervals, and stored using Digidata 1200 analog/digital interface with Pclamp6/Clampex software (Axon Instruments). […] The inhibitory potency of drugs was assessed by measuring reductions in the peak amplitude of Na^+ currents induced by increasing concentrations of compounds tested. […]
(The patch-clamp technique gives a direct electrical read-out from membranes.)

A further experiment has as its system Na^+ channel Site 1. Format: binding. To be noted: [^3H] saxitoxin, rat forebrain membranes.
A further experiment deals with Na^+ channel Site 2. Format: binding. Particulars: [^3H] batrachotoxin, rat forebrain membranes.
The subject of the next experiment is formalin test in mice. Put plainly: Formalin test (antinociceptive activity, time licking/biting injected paw). The class given is in vivo. Particulars: Mus musculus. The protocol:
Analgesic activity of 4-(4-fluorophenoxy)benzaldehyde semicarbazone was assessed in the formalin test. The method of Hunskaar, et al., J. Neurosci. Method 14:69-76 (1985), was used with some modifications as described in the following.
Mice were placed in Plexiglas jars for at least 1 h to accommodate to experimental conditions. Following the accommodation period, mice were weighed and injected with 4-(4-Fluorophenoxy)benzaldehyde semicarbazone by i.p. or p.o. administration. Control mice were injected with saline (10 ml/kg). Fifteen min (i.p.) or 30 min (p.o.) following 4-(4-fluorophenoxy)benzaldehyde semicarbazone administration mice were injected with formalin ([…] of 5% formaldehyde solution in saline) into the dorsal surface of the right hand paw. Mice were immediately transferred to the Plexiglas jars and the amount of time that each mouse spent licking and/or biting the injected paw was recorded for every 5-min period over the 1 h observation period. The data presented here are at 0-5 min (early phase) and from 5-60 min (late phase) following formalin injections. The late phase of the formalin test is the average of eleven 5-min periods.
The compound has a potency of ED50 about 5-10 mg/kg by both routes of administration.

Setting [3] is: determined as described in example 38.
Where [4] appears, read: determined as described in example 38, read-out: MES (ED50 mg/kg).

As to “4-(4-fluorophenyl)benzaldehyde 2'-methylsemicarbazone”, the “MES (ED50 mg/kg)” value in experiment [1] (setting [3]) amounted to 1.5 mg/kg.
On to `CN(NCc1ccc(Oc2ccc(F)cc2)cc1)C(N)=O` [2'-methyl-4-(4-flourophenoxy)phenylmethylsemicarbazide], for which the ED50 in experiment [1] (setting [4]) was 3.2 mg/kg.
In the case of `NC(=O)NN=Cc1ccc(-c2ccc(F)cc2)c(F)c1` [3-fluoro-4-(4-fluorophenyl)benzaldehyde semicarbazone], the ED50 in experiment [1] (setting [4]) was determined as 3 mg/kg.
As to `NC(=O)NN=Cc1ccc(Oc2ccc3c(c2)OCO3)cc1` [4-(3,4-methylenedioxyphenoxy)benzaldehyde semicarbazone], the ED50 in experiment [1] (read-out: ED50 (the dose provided protection of 50% of animals), administered orally 30 min before the test) came out at 5.3 mg/kg; in experiment [1] (setting [4]), 3.4 mg/kg.
On to `CN(N=Cc1ccc(Oc2ccc(F)cc2)c(F)c1)C(N)=O` [4-(4-Fluorophenoxy)-3-fluorobenzaldehyde 2'-methylsemicarbazone], for which the ED50 in experiment [1] (setting [4]) worked out at 0.9 mg/kg.
On to `CCCCOc1ccc(Oc2ccc(C=NNC(N)=O)cc2)cc1` [4-(4-butoxyphenoxy)benzaldehyde semicarbazone], for which the ED50 in experiment [1] (setting [4]) is 14.9 mg/kg.
The IC50 is the concentration at which inhibition is half-maximal. As for `NC(=O)NN=Cc1ccc(Oc2ccc(F)cc2)cc1` [4-(4-fluorophenoxy)benzaldehyde semicarbazone], the “effect on Na^+ currents” value in experiment [2] (concentrations between 0.1 - 10 µM, holding membrane voltage of -100 mV) is recorded as “very little effect”. In addition, the Kd in experiment [2] (for inactivated Na^+ channels, read-out: apparent antagonist dissociation constant (Kd)) is about 0.6 µM. For the same molecule, the IC50 in the experiment on Na^+ channel Site 1 was over 100 µM; with Na^+ channel Site 2 it was 22 µM. The ED50 in the experiment on formalin test in mice (ip, 0.25 h, i.p., formalin 15 min after administration) was 5 to 10 mg/kg; in the experiment with formalin test in mice (po, 0.5 h, p.o., formalin 30 min after administration), 5 to 10 mg/kg; in experiment [1] (setting [4]), 1.6 mg/kg.
Take `NC(=O)NNCc1ccc(Oc2ccc(F)cc2)cc1` [4-(4-fluorophenoxy)phenylmethylsemicarbazide]: the “MES (ED50 mg/kg)” value in experiment [1] (setting [3]) was 4.2 mg/kg.
As for `NC(=O)NN=Cc1ccc(Oc2ccc3c(c2)CCC3)cc1` [4-(5-indanoxy)benzaldehyde semicarbazone, 4-(5-Indanoxy)benzaldehyde semicarbazone], the ED50 in experiment [1] (setting [4]) was 1.7 mg/kg.
Same read-out and setting: the result for `NC(=O)NN=Cc1ccc(OC2CCCCCC2)cc1` [4-cycloheptoxybenzaldehyde semicabazone, 4-Cycloheptyloxybenzaldehyde semicarbazone] reads 3.2 mg/kg.
Regarding `CCN(CC)CC(=O)Nc1c(C)cccc1C` [Lidocaine, reference compound], the concentration for half-maximal inhibition (IC50) was over 100 µM in the experiment on Na^+ channel Site 1 and 29.9 µM with Na^+ channel Site 2.
